Test results as given in PubChem BioAssay (NCI).
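In this assay, cells in 96-well plates receive the compound at five concentrations for 48 hours. Endpoints are linearly interpolated between the surrounding concentrations. GI50 marks 50% less growth. TGI denotes the concentration required for complete inhibition of growth.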

Columns and labels:
Experiment in all cases: NCI anticancer screen, dose series, 48 h
786-0 renal = tested on: 786-0 renal
A498 renal = tested on: A498 renal
A549 NSCLC = tested on: A549 NSCLC
ACHN renal = tested on: ACHN renal
BT-549 breast = tested on: BT-549 breast
CAKI-1 renal = tested on: CAKI-1 renal
CCRF-CEM leukemia = tested on: CCRF-CEM leukemia
COLO 205 colon = tested on: COLO 205 colon
DU-145 prostate = tested on: DU-145 prostate
EKVX NSCLC = tested on: EKVX NSCLC
HCC-2998 colon = tested on: HCC-2998 colon
HCT-116 colon = tested on: HCT-116 colon
HCT-15 colon = tested on: HCT-15 colon
HL-60(TB) leukemia = tested on: HL-60(TB) leukemia
HOP-62 NSCLC = tested on: HOP-62 NSCLC
HS 578T breast = tested on: HS 578T breast
HT29 colon = tested on: HT29 colon
IGROV1 ovarian = tested on: IGROV1 ovarian
K-562 leukemia = tested on: K-562 leukemia
KM12 colon = tested on: KM12 colon
LOX IMVI melanoma = tested on: LOX IMVI melanoma
M14 melanoma = tested on: M14 melanoma
MALME-3M melanoma = tested on: MALME-3M melanoma
MCF7 breast = tested on: MCF7 breast
MDA-MB-231 breast = tested on: MDA-MB-231 breast
MDA-MB-435 = tested on: MDA-MB-435
MOLT-4 leukemia = tested on: MOLT-4 leukemia
NCI-H226 lung = tested on: NCI-H226 lung
NCI-H23 lung = tested on: NCI-H23 lung
NCI-H460 lung = tested on: NCI-H460 lung
NCI-H522 lung = tested on: NCI-H522 lung
NCI/ADR-RES ovarian = tested on: NCI/ADR-RES ovarian
OVCAR-4 ovarian = tested on: OVCAR-4 ovarian
OVCAR-5 ovarian = tested on: OVCAR-5 ovarian
OVCAR-8 ovarian = tested on: OVCAR-8 ovarian
PC-3 prostate = tested on: PC-3 prostate
RPMI-8226 leukemia = tested on: RPMI-8226 leukemia
RXF 393 renal = tested on: RXF 393 renal
SF-268 CNS = tested on: SF-268 CNS
SF-295 CNS = tested on: SF-295 CNS
SF-539 CNS = tested on: SF-539 CNS
SK-MEL-2 melanoma = tested on: SK-MEL-2 melanoma
SK-MEL-28 melanoma = tested on: SK-MEL-28 melanoma
SK-MEL-5 melanoma = tested on: SK-MEL-5 melanoma
SK-OV-3 ovarian = tested on: SK-OV-3 ovarian
SN12C renal = tested on: SN12C renal
SNB-19 CNS = tested on: SNB-19 CNS
SNB-75 CNS = tested on: SNB-75 CNS
SR leukemia = tested on: SR leukemia
SW-620 colon = tested on: SW-620 colon
T-47D breast = tested on: T-47D breast
TK-10 renal = tested on: TK-10 renal
U251 CNS = tested on: U251 CNS
UACC-257 melanoma = tested on: UACC-257 melanoma
UACC-62 melanoma = tested on: UACC-62 melanoma
UO-31 renal = tested on: UO-31 renal

SMILES: Oc1ccc(CSc2nnc(-c3cnccn3)n2-c2ccccc2)c2cccnc12
- GI50 (786-0 renal): 3.7 µM
- TGI (786-0 renal): 34 µM
- GI50 (A498 renal): 2.6 µM
- TGI (A498 renal): 10.1 µM
- GI50 (A549 NSCLC): 1.18 µM
- TGI (A549 NSCLC): > 100 µM
- GI50 (ACHN renal): 0.641 µM
- TGI (ACHN renal): > 40.9 µM
- GI50 (BT-549 breast): 0.736 µM
- TGI (BT-549 breast): > 49.6 µM
- GI50 (CAKI-1 renal): 1.98 µM
- TGI (CAKI-1 renal): > 92.3 µM
- GI50 (CCRF-CEM leukemia): 0.563 µM
- TGI (CCRF-CEM leukemia): > 100 µM
- GI50 (COLO 205 colon): 11.7 µM
- TGI (COLO 205 colon): > 100 µM
- GI50 (DU-145 prostate): 0.669 µM
- TGI (DU-145 prostate): > 100 µM
- GI50 (EKVX NSCLC): 1.87 µM
- TGI (EKVX NSCLC): > 100 µM
- GI50 (HCC-2998 colon): 2.9 µM
- TGI (HCC-2998 colon): > 100 µM
- GI50 (HCT-116 colon): 0.37 µM
- TGI (HCT-116 colon): > 100 µM
- GI50 (HCT-15 colon): 0.408 µM
- TGI (HCT-15 colon): > 100 µM
- GI50 (HL-60(TB) leukemia): 0.594 µM
- TGI (HL-60(TB) leukemia): 5.09 µM
- GI50 (HOP-62 NSCLC): 0.729 µM
- TGI (HOP-62 NSCLC): 50.8 µM
- GI50 (HS 578T breast): 0.522 µM
- TGI (HS 578T breast): > 100 µM
- GI50 (HT29 colon): 3.99 µM
- TGI (HT29 colon): > 100 µM
- GI50 (IGROV1 ovarian): 0.923 µM
- TGI (IGROV1 ovarian): > 100 µM
- GI50 (K-562 leukemia): 0.468 µM
- TGI (K-562 leukemia): > 100 µM
- GI50 (KM12 colon): 1.45 µM
- TGI (KM12 colon): > 100 µM
- GI50 (LOX IMVI melanoma): 0.559 µM
- TGI (LOX IMVI melanoma): 13.4 µM
- GI50 (M14 melanoma): 0.815 µM
- GI50 (MALME-3M melanoma): 2.02 µM
- TGI (MALME-3M melanoma): > 100 µM
- GI50 (MCF7 breast): 0.334 µM
- TGI (MCF7 breast): > 100 µM
- GI50 (MDA-MB-231 breast): 1.28 µM
- TGI (MDA-MB-231 breast): > 86.5 µM
- GI50 (MDA-MB-435): 0.571 µM
- TGI (MDA-MB-435): > 100 µM
- GI50 (MOLT-4 leukemia): 0.707 µM
- TGI (MOLT-4 leukemia): > 100 µM
- GI50 (NCI-H226 lung): 3.78 µM
- TGI (NCI-H226 lung): > 100 µM
- GI50 (NCI-H23 lung): 0.496 µM
- TGI (NCI-H23 lung): > 61 µM
- GI50 (NCI-H460 lung): 0.412 µM
- TGI (NCI-H460 lung): 16.4 µM
- GI50 (NCI-H522 lung): 0.353 µM
- TGI (NCI-H522 lung): > 100 µM
- GI50 (NCI/ADR-RES ovarian): 0.309 µM
- TGI (NCI/ADR-RES ovarian): > 34.8 µM
- GI50 (OVCAR-4 ovarian): 3.65 µM
- TGI (OVCAR-4 ovarian): > 100 µM
- GI50 (OVCAR-5 ovarian): 3.83 µM
- TGI (OVCAR-5 ovarian): > 100 µM
- GI50 (OVCAR-8 ovarian): 0.519 µM
- TGI (OVCAR-8 ovarian): > 100 µM
- GI50 (PC-3 prostate): 0.586 µM
- TGI (PC-3 prostate): > 100 µM
- GI50 (RPMI-8226 leukemia): 0.46 µM
- TGI (RPMI-8226 leukemia): > 100 µM
- GI50 (RXF 393 renal): 2.59 µM
- TGI (RXF 393 renal): > 58.2 µM
- GI50 (SF-268 CNS): 0.782 µM
- TGI (SF-268 CNS): > 100 µM
- GI50 (SF-295 CNS): 1 µM
- TGI (SF-295 CNS): > 59.6 µM
- GI50 (SF-539 CNS): 0.919 µM
- TGI (SF-539 CNS): > 37.1 µM
- GI50 (SK-MEL-2 melanoma): 0.566 µM
- GI50 (SK-MEL-28 melanoma): 2.07 µM
- TGI (SK-MEL-28 melanoma): > 100 µM
- GI50 (SK-MEL-5 melanoma): 0.638 µM
- GI50 (SK-OV-3 ovarian): 1.28 µM
- TGI (SK-OV-3 ovarian): 18.2 µM
- GI50 (SN12C renal): 0.392 µM
- TGI (SN12C renal): > 100 µM
- GI50 (SNB-19 CNS): 0.522 µM
- TGI (SNB-19 CNS): > 100 µM
- GI50 (SNB-75 CNS): 0.707 µM
- TGI (SNB-75 CNS): > 62.3 µM
- GI50 (SR leukemia): 0.409 µM
- TGI (SR leukemia): > 100 µM
- GI50 (SW-620 colon): 0.624 µM
- TGI (SW-620 colon): > 100 µM
- GI50 (T-47D breast): 1.13 µM
- TGI (T-47D breast): > 100 µM
- GI50 (TK-10 renal): 3.23 µM
- TGI (TK-10 renal): > 100 µM
- GI50 (U251 CNS): 0.47 µM
- TGI (U251 CNS): > 100 µM
- GI50 (UACC-257 melanoma): 2.16 µM
- TGI (UACC-257 melanoma): > 28.7 µM
- GI50 (UACC-62 melanoma): 1.18 µM
- TGI (UACC-62 melanoma): 6.73 µM
- GI50 (UO-31 renal): 0.458 µM
- TGI (UO-31 renal): 15.3 µM
